# ChEMBL document CHEMBL4507279, “Data for DCP probe BI-9627” (2021)
# pKi: −log10 of the molar value. Active and inactive are the calls of the source. The calls are words filed in the database; no cut-off is given here.
# Assays:
# [1] = target: Serine/threonine-protein kinase pim-2 (Homo sapiens) (UniProt Q9P1W9); conditions: Compound concentration 1000.0 nM
# [2] = target: Glycogen synthase kinase-3 beta (Homo sapiens) (UniProt P49841); conditions: Compound concentration 1000.0 nM
# [3] = target: Histamine H2 receptor (Homo sapiens) (UniProt P25021); conditions: Compound concentration 10.0 uM
# [4] = target: Alpha-1B adrenergic receptor (Homo sapiens) (UniProt P35368); conditions: Compound concentration 10.0 uM
# [5] = target: D(1A) dopamine receptor (Homo sapiens) (UniProt P21728); conditions: Compound concentration 10.0 uM
# D(1A) dopamine receptor (Homo sapiens), sequence (P21728 whole entry): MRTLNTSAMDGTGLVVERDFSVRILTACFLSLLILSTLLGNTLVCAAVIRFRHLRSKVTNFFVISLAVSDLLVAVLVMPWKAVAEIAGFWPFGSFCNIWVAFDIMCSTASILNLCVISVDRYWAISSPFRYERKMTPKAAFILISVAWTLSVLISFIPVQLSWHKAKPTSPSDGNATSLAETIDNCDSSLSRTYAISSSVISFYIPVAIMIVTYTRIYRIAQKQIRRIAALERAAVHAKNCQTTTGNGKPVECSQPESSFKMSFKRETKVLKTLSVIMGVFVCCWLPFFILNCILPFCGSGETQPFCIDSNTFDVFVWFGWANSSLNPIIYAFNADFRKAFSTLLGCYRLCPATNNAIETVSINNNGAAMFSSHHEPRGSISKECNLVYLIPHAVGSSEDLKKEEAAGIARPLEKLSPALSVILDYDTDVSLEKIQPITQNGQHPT
# [6] = target: MAP kinase-activated protein kinase 5 (Homo sapiens) (UniProt Q8IW41); conditions: Compound concentration 1000.0 nM
# MAP kinase-activated protein kinase 5 (Homo sapiens), sequence (Q8IW41 whole entry): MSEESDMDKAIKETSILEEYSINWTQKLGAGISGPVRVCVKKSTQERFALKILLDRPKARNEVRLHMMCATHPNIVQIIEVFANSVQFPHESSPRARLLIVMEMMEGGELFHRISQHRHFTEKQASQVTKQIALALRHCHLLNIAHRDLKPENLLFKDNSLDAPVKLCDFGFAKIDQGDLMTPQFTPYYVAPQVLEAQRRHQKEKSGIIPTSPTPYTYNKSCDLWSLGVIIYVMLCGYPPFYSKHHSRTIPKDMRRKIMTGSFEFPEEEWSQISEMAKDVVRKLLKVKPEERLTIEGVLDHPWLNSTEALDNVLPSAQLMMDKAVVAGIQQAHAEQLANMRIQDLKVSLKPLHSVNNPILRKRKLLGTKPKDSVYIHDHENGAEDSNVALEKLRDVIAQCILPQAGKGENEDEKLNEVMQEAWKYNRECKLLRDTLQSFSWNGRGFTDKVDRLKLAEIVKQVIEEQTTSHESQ
# [7] = target: Misshapen-like kinase 1 (Homo sapiens) (UniProt Q8N4C8); conditions: Compound concentration 1000.0 nM
# Misshapen-like kinase 1 (Homo sapiens), sequence (Q8N4C8 whole entry, looked up): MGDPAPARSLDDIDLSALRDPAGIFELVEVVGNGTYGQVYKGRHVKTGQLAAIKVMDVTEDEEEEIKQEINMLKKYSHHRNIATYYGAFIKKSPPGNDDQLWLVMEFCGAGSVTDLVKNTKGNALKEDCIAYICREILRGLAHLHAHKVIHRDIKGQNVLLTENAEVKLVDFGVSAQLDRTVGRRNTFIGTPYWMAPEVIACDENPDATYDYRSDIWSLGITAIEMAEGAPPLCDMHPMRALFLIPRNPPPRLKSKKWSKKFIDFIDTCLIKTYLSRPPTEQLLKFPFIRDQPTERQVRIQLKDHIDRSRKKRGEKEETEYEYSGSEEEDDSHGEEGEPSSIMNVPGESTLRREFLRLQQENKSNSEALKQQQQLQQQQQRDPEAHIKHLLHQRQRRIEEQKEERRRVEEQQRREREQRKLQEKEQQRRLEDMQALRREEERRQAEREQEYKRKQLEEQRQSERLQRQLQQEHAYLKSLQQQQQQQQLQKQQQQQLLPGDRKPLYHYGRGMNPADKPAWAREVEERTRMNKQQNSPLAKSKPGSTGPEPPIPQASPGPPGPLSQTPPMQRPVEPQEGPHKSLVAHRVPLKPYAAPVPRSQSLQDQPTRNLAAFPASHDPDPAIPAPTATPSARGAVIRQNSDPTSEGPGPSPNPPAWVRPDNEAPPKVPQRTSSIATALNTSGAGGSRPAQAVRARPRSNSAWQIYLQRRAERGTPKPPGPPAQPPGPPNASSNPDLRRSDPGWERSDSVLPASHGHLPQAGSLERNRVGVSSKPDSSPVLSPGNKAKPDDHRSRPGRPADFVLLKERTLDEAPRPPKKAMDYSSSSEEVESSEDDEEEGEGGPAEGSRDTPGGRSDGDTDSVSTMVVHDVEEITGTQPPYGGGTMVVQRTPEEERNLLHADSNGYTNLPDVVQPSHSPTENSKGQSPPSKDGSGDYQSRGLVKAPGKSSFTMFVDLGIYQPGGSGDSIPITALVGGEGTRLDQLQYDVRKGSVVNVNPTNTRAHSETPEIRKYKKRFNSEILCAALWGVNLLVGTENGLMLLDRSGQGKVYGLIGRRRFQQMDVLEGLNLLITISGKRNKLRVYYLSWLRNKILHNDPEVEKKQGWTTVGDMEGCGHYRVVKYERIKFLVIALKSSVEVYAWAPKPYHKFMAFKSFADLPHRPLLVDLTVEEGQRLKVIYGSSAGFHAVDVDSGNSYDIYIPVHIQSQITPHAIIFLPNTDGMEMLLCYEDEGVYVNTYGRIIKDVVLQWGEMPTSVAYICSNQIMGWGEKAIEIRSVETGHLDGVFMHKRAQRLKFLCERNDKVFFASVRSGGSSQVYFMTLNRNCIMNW
# [8] = target: Wee1-like protein kinase 2 (Homo sapiens) (UniProt P0C1S8); conditions: Compound concentration 1000.0 nM
# Wee1-like protein kinase 2 (Homo sapiens), sequence (P0C1S8 whole entry, looked up): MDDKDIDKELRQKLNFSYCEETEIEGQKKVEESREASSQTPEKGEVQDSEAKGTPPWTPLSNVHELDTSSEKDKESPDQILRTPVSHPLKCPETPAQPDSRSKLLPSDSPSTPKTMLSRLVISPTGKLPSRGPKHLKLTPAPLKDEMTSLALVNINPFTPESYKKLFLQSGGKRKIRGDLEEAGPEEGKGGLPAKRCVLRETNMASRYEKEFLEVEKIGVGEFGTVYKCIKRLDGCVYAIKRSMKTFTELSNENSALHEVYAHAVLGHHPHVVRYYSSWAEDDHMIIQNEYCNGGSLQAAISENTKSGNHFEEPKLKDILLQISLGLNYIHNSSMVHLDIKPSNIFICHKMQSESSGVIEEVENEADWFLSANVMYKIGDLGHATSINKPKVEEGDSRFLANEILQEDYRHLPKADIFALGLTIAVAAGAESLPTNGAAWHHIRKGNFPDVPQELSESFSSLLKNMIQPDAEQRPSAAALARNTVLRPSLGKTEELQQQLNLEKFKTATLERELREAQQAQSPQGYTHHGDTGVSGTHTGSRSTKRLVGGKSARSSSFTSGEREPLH
# [9] = target: Dual specificity protein kinase CLK1 (Homo sapiens) (UniProt P49759); conditions: Compound concentration 1000.0 nM
# Dual specificity protein kinase CLK1 (Homo sapiens), sequence (P49759 whole entry, looked up): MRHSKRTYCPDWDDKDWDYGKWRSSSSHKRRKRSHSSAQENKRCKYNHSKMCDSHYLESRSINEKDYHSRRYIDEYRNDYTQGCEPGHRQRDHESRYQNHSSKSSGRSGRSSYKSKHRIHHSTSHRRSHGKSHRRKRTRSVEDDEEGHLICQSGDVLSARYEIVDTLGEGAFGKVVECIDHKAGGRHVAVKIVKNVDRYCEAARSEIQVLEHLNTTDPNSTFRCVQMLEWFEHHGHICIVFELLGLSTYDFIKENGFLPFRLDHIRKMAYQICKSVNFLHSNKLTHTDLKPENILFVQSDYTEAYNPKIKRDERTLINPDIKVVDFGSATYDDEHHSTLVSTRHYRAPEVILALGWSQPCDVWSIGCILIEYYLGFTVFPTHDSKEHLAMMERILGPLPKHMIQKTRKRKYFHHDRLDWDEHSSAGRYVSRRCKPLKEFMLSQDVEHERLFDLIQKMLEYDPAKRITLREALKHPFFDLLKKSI
# [10] = target: Mitogen-activated protein kinase 11 (Homo sapiens) (UniProt Q15759); conditions: Compound concentration 1000.0 nM
# [11] = target: Calcium/calmodulin-dependent protein kinase type 1B (Homo sapiens) (UniProt Q6P2M8); conditions: Compound concentration 1000.0 nM
# Calcium/calmodulin-dependent protein kinase type 1B (Homo sapiens), sequence (Q6P2M8 whole entry): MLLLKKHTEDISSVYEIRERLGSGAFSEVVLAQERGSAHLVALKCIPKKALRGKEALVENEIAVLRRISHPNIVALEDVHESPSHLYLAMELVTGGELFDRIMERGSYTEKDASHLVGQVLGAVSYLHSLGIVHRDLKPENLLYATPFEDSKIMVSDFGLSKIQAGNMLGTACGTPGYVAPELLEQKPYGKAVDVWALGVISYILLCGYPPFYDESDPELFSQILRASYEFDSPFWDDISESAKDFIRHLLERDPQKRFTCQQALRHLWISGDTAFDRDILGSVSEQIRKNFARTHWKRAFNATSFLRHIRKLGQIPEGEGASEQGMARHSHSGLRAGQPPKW
# [12] = target: Sigma intracellular receptor 2 (Homo sapiens) (UniProt Q5BJF2); assay: SIGMA2/R Eurofins-Panlabs selectivity data (BI); conditions: Rattus norvegicus; Compound concentration 10.0 uM
# [13] = target: Sodium-dependent dopamine transporter (Homo sapiens, UniProt Q01959); assay: DATRANS/H Eurofins-Panlabs selectivity data (BI); conditions: Compound concentration 10.0 uM
# [14] = target: Sigma non-opioid intracellular receptor 1 (Homo sapiens) (UniProt Q99720); assay: SIGMA1/HU Eurofins-Panlabs selectivity data (BI); conditions: Compound concentration 10.0 uM
# [15] = target: T1, Alpha-2A adrenergic receptor (Homo sapiens) (UniProt P08913); assay: ALPHA2A/H Eurofins-Panlabs selectivity data (BI); conditions: Compound concentration 10.0 uM
# T1 sequence (whole entry): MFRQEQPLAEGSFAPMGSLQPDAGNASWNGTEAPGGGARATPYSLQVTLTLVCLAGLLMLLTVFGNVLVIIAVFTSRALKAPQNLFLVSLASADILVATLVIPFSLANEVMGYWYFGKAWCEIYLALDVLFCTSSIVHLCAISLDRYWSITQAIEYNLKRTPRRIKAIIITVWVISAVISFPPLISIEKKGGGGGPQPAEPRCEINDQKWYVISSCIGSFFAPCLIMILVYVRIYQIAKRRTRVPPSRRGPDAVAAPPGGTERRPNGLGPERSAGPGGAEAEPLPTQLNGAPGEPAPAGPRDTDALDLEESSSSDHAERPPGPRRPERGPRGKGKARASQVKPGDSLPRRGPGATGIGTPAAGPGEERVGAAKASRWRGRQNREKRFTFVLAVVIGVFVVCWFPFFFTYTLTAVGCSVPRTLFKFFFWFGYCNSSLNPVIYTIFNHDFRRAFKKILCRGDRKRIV
# [16] = Human platelet swelling inhibition (hPSA) assay
# [17] = target: Beta-1 adrenergic receptor (Homo sapiens) (UniProt P08588); conditions: Compound concentration 10.0 uM
# [18] = target: D(1A) dopamine receptor (Homo sapiens) (UniProt P21728); assay: D1/HU Eurofins-Panlabs selectivity data (BI); conditions: Compound concentration 10.0 uM
# [19] = target: Glutamate NMDA receptor (Rattus norvegicus) (UniProt P35439+Q00959+Q00960+Q00961+Q62645+Q8VHN2+Q9R1M7); assay: NMDAAGSI/RA Eurofins-Panlabs selectivity data (BI); assay type: protein-complex assay; conditions: filed as agonist, Compound concentration 10.0 uM
# [20] = target: Gamma-aminobutyric acid receptor subunit alpha-1 (Rattus norvegicus) (UniProt P62813); assay: GABAA MUSCIMOL CENT Eurofins-Panlabs selectivity data (BI); conditions: Compound concentration 10.0 uM
# [21] = target: 5-hydroxytryptamine receptor 1E (Homo sapiens) (UniProt P28566); conditions: Compound concentration 10.0 uM
# [22] = target: Neuropeptide Y receptor type 2 (Homo sapiens) (UniProt P49146); assay: Y2/HU Eurofins-Panlabs selectivity data (BI); conditions: Compound concentration 10.0 uM
# [23] = target: 5-hydroxytryptamine receptor 2A (Homo sapiens, UniProt P28223); assay: GPCRScan assay: inhibition of 5-HT2A; set-up: radioligand conc. used [nm] 1.2 – 2.4, parental cells HEKT
# [24] = target: B1 bradykinin receptor (Homo sapiens) (UniProt P46663); assay: B1/H Eurofins-Panlabs selectivity data (BI); conditions: Compound concentration 10.0 uM
# [25] = target: Glutamate receptor ionotropic, kainate 1 (Rattus norvegicus) (UniProt P22756); conditions: Compound concentration 10.0 uM
# [26] = target: T2, D(4) dopamine receptor (Homo sapiens) (UniProt P21917); assay: D4.2/H Eurofins-Panlabs selectivity data (BI); conditions: Compound concentration 10.0 uM
# T2 sequence (whole entry): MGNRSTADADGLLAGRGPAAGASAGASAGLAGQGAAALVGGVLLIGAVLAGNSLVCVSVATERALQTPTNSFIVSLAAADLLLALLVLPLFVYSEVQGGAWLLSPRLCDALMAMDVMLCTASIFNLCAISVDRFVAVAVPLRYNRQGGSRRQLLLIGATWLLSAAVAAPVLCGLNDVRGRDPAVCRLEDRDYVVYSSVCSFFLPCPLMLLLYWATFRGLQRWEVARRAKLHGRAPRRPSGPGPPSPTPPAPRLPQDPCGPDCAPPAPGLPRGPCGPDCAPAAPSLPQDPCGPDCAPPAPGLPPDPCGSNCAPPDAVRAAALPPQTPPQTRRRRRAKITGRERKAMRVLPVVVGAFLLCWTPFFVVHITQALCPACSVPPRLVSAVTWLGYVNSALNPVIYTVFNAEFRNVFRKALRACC
# [27] = target: D(2) dopamine receptor (Homo sapiens) (UniProt P14416); assay: D2S/HU Eurofins-Panlabs selectivity data (BI); conditions: Compound concentration 10.0 uM
# [28] = target: Sodium-dependent serotonin transporter (Homo sapiens) (UniProt P31645); assay: 5HTTRANS/HU Eurofins-Panlabs selectivity data (BI); conditions: Compound concentration 10.0 uM
# Sodium-dependent serotonin transporter (Homo sapiens), sequence (P31645 whole entry, looked up): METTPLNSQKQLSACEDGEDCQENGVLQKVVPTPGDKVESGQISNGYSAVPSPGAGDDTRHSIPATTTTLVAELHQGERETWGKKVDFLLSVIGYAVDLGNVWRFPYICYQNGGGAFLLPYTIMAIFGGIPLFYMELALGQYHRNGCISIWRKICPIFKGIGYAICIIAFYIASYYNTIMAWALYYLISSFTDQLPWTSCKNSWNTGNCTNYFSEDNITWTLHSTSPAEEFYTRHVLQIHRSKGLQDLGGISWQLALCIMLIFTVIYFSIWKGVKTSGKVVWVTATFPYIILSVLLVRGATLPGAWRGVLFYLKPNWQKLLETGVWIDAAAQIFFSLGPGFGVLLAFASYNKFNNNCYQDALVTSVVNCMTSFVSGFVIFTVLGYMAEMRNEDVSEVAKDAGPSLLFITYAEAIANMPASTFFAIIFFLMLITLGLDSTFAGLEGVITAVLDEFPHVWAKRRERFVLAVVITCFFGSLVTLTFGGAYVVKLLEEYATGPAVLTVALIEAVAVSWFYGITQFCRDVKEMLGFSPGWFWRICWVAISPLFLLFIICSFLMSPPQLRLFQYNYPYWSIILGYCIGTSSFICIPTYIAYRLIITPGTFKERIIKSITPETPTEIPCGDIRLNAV
# [29] = target: Nicotinic acetylcholine receptor alpha-1/beta-1 (Homo sapiens) (UniProt P02708+P11230); assay: NACH_BS_N/H Eurofins-Panlabs selectivity data (BI); assay type: protein-complex assay; conditions: Compound concentration 10.0 uM
# [30] = target: Acetylcholine receptor subunit alpha (Homo sapiens) (UniProt P02708); assay: NACH/H Eurofins-Panlabs selectivity data (BI); conditions: Compound concentration 10.0 uM
# [31] = target: Delta-type opioid receptor (Homo sapiens) (UniProt P41143); assay: DELTA/HU Eurofins-Panlabs selectivity data (BI); conditions: Compound concentration 10.0 uM
# [32] = target: 5-hydroxytryptamine receptor 1A (Homo sapiens) (UniProt P08908); assay: 5HT1A/HU Eurofins-Panlabs selectivity data (BI); conditions: Compound concentration 10.0 uM
# [33] = target: Voltage-dependent N-type calcium channel subunit alpha-1B (Rattus norvegicus) (UniProt Q02294); assay: CA+/N/RA Eurofins-Panlabs selectivity data (BI); conditions: Compound concentration 10.0 uM
# Glycogen synthase kinase-3 beta (Homo sapiens), sequence (P49841 whole entry, looked up): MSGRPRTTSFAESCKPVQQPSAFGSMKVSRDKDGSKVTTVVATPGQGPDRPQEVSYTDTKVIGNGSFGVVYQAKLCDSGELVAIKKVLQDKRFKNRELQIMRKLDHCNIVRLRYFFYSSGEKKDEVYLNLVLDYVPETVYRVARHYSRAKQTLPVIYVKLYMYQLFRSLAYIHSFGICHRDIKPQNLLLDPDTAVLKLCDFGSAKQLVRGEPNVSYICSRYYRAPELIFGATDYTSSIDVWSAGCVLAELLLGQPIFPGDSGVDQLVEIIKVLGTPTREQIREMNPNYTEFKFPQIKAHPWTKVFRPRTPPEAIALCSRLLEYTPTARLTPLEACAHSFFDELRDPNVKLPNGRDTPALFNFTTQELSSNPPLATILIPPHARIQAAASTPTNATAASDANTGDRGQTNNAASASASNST
# Serine/threonine-protein kinase pim-2 (Homo sapiens), sequence (Q9P1W9 whole entry, looked up): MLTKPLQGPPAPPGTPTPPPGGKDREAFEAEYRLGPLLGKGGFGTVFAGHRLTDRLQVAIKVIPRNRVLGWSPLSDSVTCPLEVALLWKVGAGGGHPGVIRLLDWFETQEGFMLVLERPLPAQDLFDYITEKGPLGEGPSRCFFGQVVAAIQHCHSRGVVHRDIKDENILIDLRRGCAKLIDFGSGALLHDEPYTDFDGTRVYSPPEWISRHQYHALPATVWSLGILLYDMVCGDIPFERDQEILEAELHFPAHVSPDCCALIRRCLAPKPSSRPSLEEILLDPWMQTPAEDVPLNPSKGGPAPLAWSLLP
structure (smiles),measurement,setting,value
CC(=O)N1CCC(c2ccc(C(=O)NC3=NCCN3)cc2C(F)(F)F)CC1 [BI 0054],residual activity,[1],100%
same,residual activity,[2],88%
same,inhibition,[3],-9.37%
same,inhibition,[4],-0.596%
same,inhibition,[5],4.8%
same,residual activity,[6],88%
same,residual activity,[7],100%
same,residual activity,[8],100%
same,residual activity,[9],100%
same,residual activity,[10],98%
same,residual activity,[11],88%
CC(=O)N1CCC(c2ccc(C(=O)NC(=N)N)cc2C(F)(F)F)CC1 [BI 9627],residual activity,[1],100%
same,residual activity,[12],90%
same,residual activity,[13],101%
same,residual activity,[14],114%
same,residual activity,[2],85%
same,residual activity,[15],93%
same,IC50,[16],0.031 µM (active)
same,inhibition,[17],-9.29%
same,residual activity,[18],94%
same,residual activity,[19],90%
same,residual activity,[20],89%
same,inhibition,[21],-9.59%
same,residual activity,[22],103%
same,pKi,[23],5.00
same,residual activity,[24],97%
same,residual activity,[25],96%
same,residual activity,[6],100%
same,residual activity,[26],105%
same,residual activity,[7],95%
same,residual activity,[27],110%
same,residual activity,[28],89%
same,residual activity,[8],100%
same,residual activity,[29],100%
same,residual activity,[9],100%
same,residual activity,[30],102%
same,residual activity,[31],113%
same,residual activity,[32],82%
same,residual activity,[11],100%
same,residual activity,[33],98%
